This is an account of results in ChEMBL document CHEMBL1140202, “A novel cell-penetrating peptide sequence derived by structural minimization of a snake toxin exhibits preferential nucleolar localization” (J Med Chem, 2008).

For series [1], the system named is HeLa. As to the kind of experiment: Cellular uptake in human HeLa cells assessed as drug translocation through nucleolar membrane by time-lapsed confocal microscopy. It is filed as ADME, cell-based.
Series [2] concerns HeLa. As to the kind of experiment: Drug penetration in human HeLa cells at 15 to 50 uM by time-lapsed confocal microscopy relative to control. It is filed as ADME, cell-based.
The test system of series [3] is HeLa. As to the kind of experiment: Toxicity against human HeLa cells upto 100 uM after 24 hrs by MTT assay. It is filed as cell-based. For orientation: Tetrazolium dyes change colour on reduction, which living cells bring about.

Where a SMILES comes first, the peptide text is derived from it. [ ]: non-standard residue; d: D form. Ahx = NCCCCCC(=O)O

As to `NCCCC[C@H](NC(=O)CCCCCNC(=O)CNC(=O)CNC(=O)[C@H](CCCCN)NC(=O)[C@H](CCCCN)NC(=O)[C@H](Cc1cnc[nH]1)NC(=O)[C@H](CS)NC(=O)[C@H](CCC(N)=O)NC(=O)[C@H](CCCCN)NC(=O)[C@@H](N)Cc1ccc(O)cc1)C(=O)N[C@@H](CCCCN)C(=O)NCC(=O)N[C@@H](CO)C(=O)NCC(=O)O` (H-YKQCHKKGG[Ahx]KKGSG-OH), the Activity entry is “Dose-dependent effect and tde” in the series on HeLa [1]; “Non-toxic” in the series with HeLa [3]. Further, the Drug uptake in the series with HeLa [2] stood at 50%.
In the case of H-YKQCHKKGGKKGSG-OH, in the series on HeLa [2], the Drug uptake was determined as 50%. In addition, the Activity result in the series with HeLa [3] is listed as “Non-toxic”.
Consider H-GSGKKGGKKHCQKY-OH, for which the Activity entry with HeLa [3] is “Non-toxic”.
Regarding H-GSGKKGGKKICQKY-OH, in the series with HeLa [3], the Activity result is recorded as “Non-toxic”.
